Measurements taken from ChEMBL document CHEMBL1201862, “PubChem BioAssay data set” (2004).
The source made the active and inactive calls.

Experiments:
[1] = target: T1, Runt-related transcription factor 1/Core-binding factor subunit beta (Homo sapiens, UniProt Q01196+Q13951); test: disruptors of Runt domain/CBFb-SMMHC interaction – biochemical, FRET, Cerulean-Runt, Venus-CBFb-SMMHC, uHTS, […] (AID 1434); format: protein assay
[2] = target: T1, Runt-related transcription factor 1/Core-binding factor subunit beta; test: Runt domain/CBFb-SMMHC interaction disruptors – biochemical, TR-FRET (AID 1438); format: protein assay
[3] = target: E3 ubiquitin-protein ligase XIAP (Homo sapiens, UniProt P98170); test: Counter Screen using XIAP-Bir3 for Chemical Antagonists of Bir1/2 domains of IAP-family anti-apoptotic proteins. [Related pubchem assays (depositor defined):AID1018, AID1449, AID1514, AID1638, AID1749, AID1750, AID488957, AID488963]
[4] = target: Type-1 angiotensin II receptor (Homo sapiens, UniProt P30556); test: agonist activity at AGTR1 – cell-based, uHTS hits, selectivity assay for APJ receptor agonist project, dose response (AID 488865); format: functional;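 further: beta-arrestin recruitment to AT1 measured by enzyme fragment complementation luminescence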
INS1 = test: INS-1E survival protection against cytokine death – cell-based, luminescence, retest, dose response (AID 449756); format: functional; conditions: Rattus norvegicus;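 further: cell death triggered by IL-1 beta plus TNF-alpha plus IFN-gamma mixture; protective hits raise ATP signal compared with cytokine alone wells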
[5] = target: T2, Short transient receptor potential channel 4 (Mus musculus, UniProt Q9QUQ5); test: calcium entry via TRPC4 opening agents – cell-based, HEK293 TRPC4/mu-opioid, Fluo-4 calcium, dose response (AID 434937); format: functional
T2 sequence (Q9QUQ5 whole entry): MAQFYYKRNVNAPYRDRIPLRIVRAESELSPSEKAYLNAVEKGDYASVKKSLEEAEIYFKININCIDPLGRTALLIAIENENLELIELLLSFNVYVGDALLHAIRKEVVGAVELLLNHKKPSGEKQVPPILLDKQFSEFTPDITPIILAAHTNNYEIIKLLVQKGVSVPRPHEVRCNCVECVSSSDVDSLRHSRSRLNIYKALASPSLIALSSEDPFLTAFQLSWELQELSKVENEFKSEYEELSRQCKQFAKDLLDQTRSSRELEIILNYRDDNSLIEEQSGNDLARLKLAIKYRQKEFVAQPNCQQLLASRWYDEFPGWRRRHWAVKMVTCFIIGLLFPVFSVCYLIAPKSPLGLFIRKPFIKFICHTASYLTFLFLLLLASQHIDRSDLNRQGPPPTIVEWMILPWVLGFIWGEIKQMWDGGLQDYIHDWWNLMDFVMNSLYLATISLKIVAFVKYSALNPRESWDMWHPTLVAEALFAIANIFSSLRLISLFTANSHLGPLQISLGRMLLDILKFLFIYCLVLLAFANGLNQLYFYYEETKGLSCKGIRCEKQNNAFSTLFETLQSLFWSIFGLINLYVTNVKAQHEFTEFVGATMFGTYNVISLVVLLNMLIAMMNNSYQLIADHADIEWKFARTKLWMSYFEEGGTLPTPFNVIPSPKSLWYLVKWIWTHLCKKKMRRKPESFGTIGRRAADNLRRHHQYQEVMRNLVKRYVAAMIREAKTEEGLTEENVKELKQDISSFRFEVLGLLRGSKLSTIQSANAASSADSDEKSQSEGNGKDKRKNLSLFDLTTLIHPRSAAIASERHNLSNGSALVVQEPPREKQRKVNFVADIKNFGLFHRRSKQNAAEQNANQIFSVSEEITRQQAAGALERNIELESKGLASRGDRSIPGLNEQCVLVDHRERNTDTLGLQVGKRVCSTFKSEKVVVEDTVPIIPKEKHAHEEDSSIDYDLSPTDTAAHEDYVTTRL

[6] = target: T3, Ubiquitin-conjugating enzyme E2 N (Homo sapiens, UniProt P61088); format: functional
T3 sequence (P61088 whole entry): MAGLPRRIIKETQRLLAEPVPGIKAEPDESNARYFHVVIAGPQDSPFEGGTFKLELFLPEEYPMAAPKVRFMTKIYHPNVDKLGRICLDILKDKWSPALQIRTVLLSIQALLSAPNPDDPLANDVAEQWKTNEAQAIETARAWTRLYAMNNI

Nonstructural protein 1 = Nonstructural protein 1 (Influenza A virus, UniProt Q194T2); format: functional, Influenza A virus (A/California/07/2009(H1N1))
[7] = target: T3, Ubiquitin-conjugating enzyme E2 N; format: functional; remark: listed apart in the source
[8] = target: 5-hydroxytryptamine receptor 5A (Homo sapiens, UniProt P47898); test: Counterscreen for agonists of OPRM1-OPRD1 heterodimerization: luminescence-based cell-based high throughput dose response assay to identify agonists of 5-hydroxytryptamine (serotonin) 5A receptor (HTR5A). [Related pubchem assays (depositor defined):AID504326, AID504355, AID504692, AID504904, AID504905]; format: functional
Mu-type opioid receptor [9] = target: T4, Mu-type opioid receptor (Homo sapiens, UniProt P35372); test: (§1) Counterscreen for agonists of heterodimerization of the mu 1 (OPRM1) and delta 1 (OPRD1) opioid receptors: Luminescence-based cell-based high throughput dose response assay to identify agonists of OPRM1 homodimerization.; format: functional
[10] = target: T5, Delta-type opioid receptor (Homo sapiens, UniProt P41143); test: as §1, with “of OPRD1” for “of OPRM1”, “homodimerization. [Related pubchem assays (depositor defined):AID504326, AID504355, AID504692, AID504904, AID504905]” for “homodimerization.”; format: functional
Bcl-2-related protein A1 = Bcl-2-related protein A1 (Mus musculus, UniProt Q07440); format: functional;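 further: confirmatory dose–response counterscreen on Bfl-1, used to check hits from a UBC13 polyubiquitin inhibitor campaign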
Troponin, cardiac muscle = Troponin, cardiac muscle (Homo sapiens, UniProt P19429+P45379+P63316); test: Fluorescence-based biochemical high throughput dose response assay for activators of the calcium sensitivity of cardiac Regulated Thin Filaments (RTF). [Related pubchem assays (depositor defined):AID493008, AID493018, AID504382, AID504383]; format: protein-complex assay
[11] = target: T6, Tyrosine-protein phosphatase non-receptor type 7 (Homo sapiens, UniProt P35236); test: redox-active compounds inhibiting HePTP phosphatase – biochemical, fluorescence, mechanism study (AID 2068); format: functional
T6 sequence (P35236 whole entry): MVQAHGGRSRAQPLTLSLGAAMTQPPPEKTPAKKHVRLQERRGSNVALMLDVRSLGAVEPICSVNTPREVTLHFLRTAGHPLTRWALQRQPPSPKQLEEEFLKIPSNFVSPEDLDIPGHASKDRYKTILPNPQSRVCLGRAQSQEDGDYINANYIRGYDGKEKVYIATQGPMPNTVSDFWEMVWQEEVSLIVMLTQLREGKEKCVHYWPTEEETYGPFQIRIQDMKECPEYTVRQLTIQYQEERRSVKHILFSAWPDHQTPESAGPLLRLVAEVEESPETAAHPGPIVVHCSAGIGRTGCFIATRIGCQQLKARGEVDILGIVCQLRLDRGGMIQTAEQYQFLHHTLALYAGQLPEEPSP

[12] = target: T7, Kappa-type opioid receptor (Homo sapiens, UniProt P41145); test: SAR analysis of Antagonists of the Kappa Opioid Receptor (KOR) using an Image-Based Assay - Set 3. [Related pubchem assays (depositor defined):AID1777, AID1785]; format: functional
[13] = target: T5, Delta-type opioid receptor; test: SAR Analysis of Antagonists of the DOR Receptor using an Image-Based Assay - Set 3. [Related pubchem assays (depositor defined):AID1777, AID1785]; format: functional
[14] = target: T7, Kappa-type opioid receptor; test: SAR analysis of small molecule antagonists of the kappa opioid receptor via a luminescent beta-arrestin assay - Set 3. [Related pubchem assays (depositor defined):AID1777, AID1778, AID1785, AID1786, AID1966, AID2133, AID2136, AID2285, AID2495]; format: functional
Mu-type opioid receptor [15] = target: T4, Mu-type opioid receptor; test: SAR Analysis of Antagonists of the MOR Receptor using an Image-Based Assay - Set 3. [Related pubchem assays (depositor defined):AID1777, AID1785, AID1786, AID1966, AID2133, AID2136, AID2284, AID2285, AID2420]; format: functional

Compound: O=C(NCc1ccccn1)c1cc2c(ccc3ccccc32)oc1=O
- IC50 [1]: 1.33 µM (active)
- IC50 [2]: > 100 µM (inactive)

Compound: CC(C)(C)c1ccc(C(CC(=O)O)NC(=O)Cc2ccc(F)cc2)cc1 (centres undefined)
- IC50 [3]: > 20 µM (inactive)

Compound: Cc1ccc2nc(N(CCCN(C)C)C(=O)c3ccc(S(=O)(=O)N4CCc5ccccc5C4)cc3)sc2c1
- EC50 [4]: 57.8 µM (inactive)
- AC50 (INS1): 6.05 µM (active)
- EC50 [5]: 3.35 µM (active)
- IC50 [6]: 7.23 µM (active)
- IC50 (Nonstructural protein 1): > 50 µM (active)
- IC50 [7]: 11 µM (active)
- EC50 [8]: > 92.5 µM (inactive)
- EC50 (Mu-type opioid receptor [9]): 10.2 µM (inactive)
- EC50 [10]: > 92.5 µM (inactive)
- IC50 (Bcl-2-related protein A1): > 20 µM (inactive)

Compound: Cc1ccc(C)c(N2CCN(C(=O)CN3C(S)=NC(C)(C)CC3C)CC2)c1 (centres undefined)
- EC50 (Troponin, cardiac muscle): > 71.5 µM (inactive)

Compound: O=C(NCc1ccco1)Nc1ccc2nc(-c3ccco3)c(-c3ccco3)nc2c1
- IC50 [11]: > 50 µM (inactive)

Compound: O=C(NCCN(Cc1ccccc1)Cc1ccccc1)c1ccc(CNS(=O)(=O)c2ccc(Br)cc2)cc1
- IC50 [12]: 6.08 µM (active)
- IC50 [13]: > 32 µM (inactive)
- IC50 [14]: > 20 µM (inactive)
- IC50 (Mu-type opioid receptor [15]): > 32 µM (inactive)
